Measurements: PubChem BioAssay (NCI)
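Exposure lasted 48 hours, with cells grown in 96-well plates and compounds tested at five concentrations. At the TGI there is no net growth.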

Key:
Assay in all cases: inhibition of tumour cell growth, NCI panel, 48 h
LOX IMVI melanoma = tested on: LOX IMVI melanoma
A498 renal = tested on: A498 renal
UO-31 renal = tested on: UO-31 renal
BT-549 breast = tested on: BT-549 breast
UACC-257 melanoma = tested on: UACC-257 melanoma
SF-539 CNS = tested on: SF-539 CNS
OVCAR-5 ovarian = tested on: OVCAR-5 ovarian
SK-OV-3 ovarian = tested on: SK-OV-3 ovarian
HS 578T breast = tested on: HS 578T breast
M14 melanoma = tested on: M14 melanoma
NCI/ADR-RES ovarian = tested on: NCI/ADR-RES ovarian
OVCAR-8 ovarian = tested on: OVCAR-8 ovarian
NCI-H23 lung = tested on: NCI-H23 lung
COLO 205 colon = tested on: COLO 205 colon
A549 NSCLC = tested on: A549 NSCLC
U251 CNS = tested on: U251 CNS
ACHN renal = tested on: ACHN renal
IGROV1 ovarian = tested on: IGROV1 ovarian
SNB-19 CNS = tested on: SNB-19 CNS
OVCAR-4 ovarian = tested on: OVCAR-4 ovarian

Structure (SMILES)	TGI (LOX IMVI melanoma) [µM]	TGI (A498 renal) [µM]	TGI (UO-31 renal) [µM]	TGI (BT-549 breast) [µM]	TGI (UACC-257 melanoma) [µM]	TGI (SF-539 CNS) [µM]	TGI (OVCAR-5 ovarian) [µM]	TGI (SK-OV-3 ovarian) [µM]	TGI (HS 578T breast) [µM]	TGI (M14 melanoma) [µM]	TGI (NCI/ADR-RES ovarian) [µM]	TGI (OVCAR-8 ovarian) [µM]	TGI (NCI-H23 lung) [µM]	TGI (COLO 205 colon) [µM]	TGI (A549 NSCLC) [µM]	TGI (U251 CNS) [µM]	TGI (ACHN renal) [µM]	TGI (IGROV1 ovarian) [µM]	TGI (SNB-19 CNS) [µM]	TGI (OVCAR-4 ovarian) [µM]
C#CCn1c(=O)c(Cl)cn(/C(=C/C(=O)OCC)C(=O)OCC)c1=O	19.9	40.8	10.6	35.7	33.3	12.7	31.7	> 61.6	> 100	22.8	> 79.3	12.9	42.6	2.5	> 62.8	35	3.93	35.1	> 66.7	38.8
N#Cc1ccc(Oc2nc3ccc(C(F)(F)F)cc3nc2-c2ccccc2)cc1	91.1	31.2	46.1	> 100	54.7	89.3	26.2	26.9	44.5	29.7	37.1	34.4	32	50.9	35.9	30.9	28.4	41.3	41.2	32.4
O=[N+]([O-])c1ccc2c(c1)c(S(=O)(=O)O)cc1nonc12	> 100	> 100	> 100	> 100	> 100	> 100	> 100	> 100	> 100	> 100	> 100	> 100	> 100	> 100	> 100	> 100	> 100	> 100	> 100	> 100
C(=C\c1cc(-c2ccc3ccccc3n2)nc2ccc3ccccc3c12)/c1ccc2ccccc2n1	> 100	> 100	> 100	> 100	> 100	> 100	> 100	> 100	> 100	> 100	> 100	> 100		> 100	> 100	> 100	> 100	> 100	> 100	> 100
c1ccc(C(CCN2CC3CCC(CC3)C2)c2ccccc2)cc1	30.6	34.1	45.7	> 100	31.9	29.5	56.8		50.5	27.3	58.3	98.3	36.1	25.1	> 100	35.1	57.8	> 100	> 100	> 100
O=C(OCc1ccccc1)N1CCN(C(=O)OCc2ccccc2)CCN(C(=O)OCc2ccccc2)CCN(C(=O)OCc2ccccc2)CCN(C(=O)OCc2ccccc2)CC1	> 100	> 100	> 100	> 100	73.1	> 100	> 100	> 100	> 100	> 100	> 100	> 100		> 100	> 100	> 100	> 100		> 100	> 100
Cc1ccc(S(=O)(=O)N2CCNCCN(S(=O)(=O)c3ccc(C)cc3)CCN(S(=O)(=O)c3ccc(C)cc3)CC2)cc1	> 100	> 100	> 100	> 100	> 100	> 100	> 100	> 100	> 100	> 100	> 100	> 100	> 100	> 100	> 100	> 100	> 100	> 100	> 100	> 100
Cc1ccc(C(=O)Nc2ccc(S(=O)(=O)O)c3cc(S(=O)(=O)O)cc(S(=O)(=O)O)c23)cc1NC(=O)c1cccc(NC(=O)Nc2cccc(C(=O)Nc3cc(C(=O)Nc4ccc(S(=O)(=O)O)c5cc(S(=O)(=O)O)cc(S(=O)(=O)O)c45)ccc3C)c2)c1 (tested in a mixture with another compound)	> 50	> 50	> 50	> 50	> 50	> 50	> 50	> 50	> 50	> 50	> 50	> 50	> 50	> 50	> 50	> 50	> 50	> 50	> 50	> 50
C=CCCCCCCCCCOC1C=CC(OC(C)=O)C(COC(C)=O)O1 (stereo not given)	> 100	> 100	> 100	> 100	95.8	> 100	> 100	> 100	63	88.9	> 100	43.4	> 100	> 100	> 100	> 100	> 100	> 100	> 100	> 100
COC(=O)c1ccccc1C1CN=NC12Cc1cccc(C)c1C2=O (stereo not given)	> 100	> 100	83.9	> 100	> 100	> 100	> 100	> 100	> 100		45.7	> 100	> 100		> 100	> 100	> 100	> 100	> 100	> 100
COc1cc2c(cc1OC)-c1cc3cc(OC)c(OC)cc3c(=O)n1CC2	> 100	45.2	13.2	> 100	> 78.4	50.9	> 100	> 100	> 57.5	> 100	> 80.1	> 100	> 100	> 100	> 100	> 100	> 86	> 62.3	> 100	> 100
CCN(CC)CCCOc1cc2c(cc1OC)C(=O)N1CCC[C@H]1C=N2	31.3	92.4	> 100	76.1	> 100	> 100	> 100	> 100	> 100	> 100	> 100	> 100		38.6	> 100	> 100	> 100		> 100	> 100
Cc1cc2nc(N3C(=O)/C(=C/c4ccc(Cl)cc4)N=C3c3ccccc3)sc2cc1C	56.2	85.9	> 100	81.7	> 100	> 100	92.7	> 100	74.2	> 100	87.3	> 100		43.3	> 100	84.7	> 100	> 100	> 100	91.8
N=c1c2c(=S)n(-c3ccccc3)c(=S)n(-c3ccccc3)c2nc(SCCN2CCOCC2)n1-c1ccccc1	3.71	8.96		4.51	4.28	8.83	33.9	15	> 100	3.8	14.6	4.51	7.02	3.66	3.36	3.93	3.5	3.36	24	3.4
O=C(N/N=C\c1ccccc1)Nc1cccc2ccccc12	> 100	88.9	> 100	98.3	> 100	> 100	> 100		66.7	49.1	> 100	> 100	> 100	> 100	> 100	> 100	39	> 100	> 100	> 100
Cn1c(=O)c2c(nc(Nc3ccc(Cl)cc3)n3c(=O)n(-c4ccccc4)c(=O)n23)n(C)c1=O	> 100	> 100	> 100	> 100	> 100	> 100	> 100		> 100	> 100	> 100	> 100	> 100	> 100	> 100	> 100	> 100	> 100	> 100	> 100
CC(C)(C)c1ccc(C(C)(C)C)c(N2C(=O)C3ON=C(c4ccc([N+](=O)[O-])cc4)C3C2=O)c1 (stereo not given)	> 25	23.2	> 25	> 25	> 25	> 25	> 25	> 25	> 25	> 25	> 25	> 25	> 25	> 25	> 25		> 25	19.4	> 25	> 25
O=C(OCCC12CC3CC(CC(C3)C1)C2)c1ccc(NCc2cc(O)ccc2O)cc1	4.37	4.83	1.58	0.684	2.38	2.08		13.1	0.542	3.37	11.1		3.28	1.2	15.7	2.95	5.18	0.277	3.23	3.17
